Experimental findings from US12005092B2, “Herbal composition for breast cancer prevention” (priority 2021, dated 2024) are described below.

In the data set the test system is MCF-7 cells. Kind of data set: MCF-7 cell viability, PrestoBlue Cell Viability Reagent. Type of data set: cell-based, human. The following applies: individual ingredients, MCF-7, 2 mg/0.2 ml. Here is the method:
In order to assess this activity, a well-established line of breast cancer cells used in cancer research was selected. MCF-7 is a widely studied cancer cell line derived from breast adenocarcinoma, it was proven to be a suitable model cell line for breast cancer investigations worldwide, including those regarding anticancer drugs.
The cells were cultured with growth medium and seeded in two 96 well plates incubated at 37 Celsius. The HCBCP solution was prepared by dissolving the powder in DPBS as per Table 1, below.
The obtained solutions were sterilized by 0.22-micron filtration.
An amount of 0.2 ml was applied in each test tube providing 2 mg of HCBCP. […]
After incubation period of 24 and 48 hours, cell viability was measured using PrestoBlue™ Cell Viability Reagent, according to manufacturer instructions.
Fluorescence was detected at excitation wavelength of 560 nm and an emission of 590 nm, using TECAN SPARK 10M microplate reader, at 24 and 48 hours after application. The fluorescence data is expressed as percentage of cell viability (%) compared to vehicle control.
Percentage of cell viability was calculated using the following formula: [(fluorescence of treated cells—mean background fluorescence)/(fluorescence of cells with vehicle control—mean background fluorescence)]×100, at 24 and 48 Hours after Application. […]

Values joined by “and” are separate entries in the source; they are usually repeats but may differ in a detail not shown here. Identical values can stand only once.

As to `O=c1c(O)c(-c2ccc(O)c(O)c2)oc2cc(O)cc(O)c12` [BF 2 Q, Quercetin], the “Mean cell viability (%)” value (24 h (Table 3)) is 42.10%. Besides, for the setting “24 h, single replicates (Table 3)”, the “Cell Viability (%)” value was 44.43% and 44.39% and 40.25% and 39.33%.
